From PubChem BioAssay (NCI) come the findings set out here.

Molecules are shown by their SMILES.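 Method: 48-hour compound exposure of cells in 96-well plates, five concentrations, linear interpolation of endpoints. TGI: concentration producing complete growth inhibition.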 Where a SMILES comes first, the peptide text is derived from it. The star is where a group is joined. Cbz = O=C(OCc1ccccc1)*

Among the test systems are COLO 205 colon; HCT-15 colon; K-562 leukemia; M14 melanoma; MDA-MB-435; NCI-H23 lung; NCI-H460 lung; NCI/ADR-RES ovarian; OVCAR-4 ovarian; OVCAR-8 ovarian; SF-268 CNS; SW-620 colon; U251 CNS.
Assay in all cases: NCI-60 cell line screen, 48 h

Turning to `Cc1ccnc2c1C(=O)C1=C(OC(C)(C)CC1O)C2=O` (stereo not drawn), the TGI with COLO 205 colon is 6.52 µM; in the assay on HCT-15 colon, 9.97 µM; in the assay on K-562 leukemia, more than 100 µM; in the assay on M14 melanoma it was 9.97 µM; in the assay on MDA-MB-435, 2.73 µM; with NCI-H23 lung it was 4.82 µM. Further, the TGI turned out to be 8.97 µM with NCI-H460 lung; 8.93 µM in the assay on NCI/ADR-RES ovarian; 12.8 µM in the assay on OVCAR-4 ovarian; 11.8 µM in the assay with OVCAR-8 ovarian; 17.5 µM with SF-268 CNS; 10.4 µM in the assay with SW-620 colon. The TGI with U251 CNS is 13.2 µM.
On to `Cn1nnnc1SC(F)(F)c1nc2ccccc2o1`, for which the TGI with COLO 205 colon, with HCT-15 colon, in the assay with K-562 leukemia, with M14 melanoma, in the assay with MDA-MB-435 and in the assay on NCI-H23 lung was more than 100 µM in each case. Besides, the TGI in the assay on NCI-H460 lung, in the assay on NCI/ADR-RES ovarian, in the assay on OVCAR-4 ovarian, in the assay with OVCAR-8 ovarian, in the assay with SF-268 CNS and with SW-620 colon was more than 100 µM throughout. This compound also yielded a TGI in the assay with U251 CNS of more than 100 µM.
For the compound `CC(=O)OC(CCC1(C)OC1COc1ccc(CCNC(=O)C=C(C)C)cc1)C(C)(C)OC(C)=O` (stereo not drawn), the TGI in the assay on COLO 205 colon was more than 92.1 µM; with HCT-15 colon, more than 100 µM; with K-562 leukemia it was more than 100 µM; with M14 melanoma it was more than 57.6 µM; in the assay with MDA-MB-435, 40.4 µM; with NCI-H23 lung, more than 100 µM. The TGI in the assay with NCI-H460 lung was more than 100 µM; with NCI/ADR-RES ovarian it was 47.9 µM; in the assay with OVCAR-4 ovarian, more than 100 µM; in the assay with OVCAR-8 ovarian it was more than 100 µM; with SF-268 CNS it was more than 100 µM; in the assay on SW-620 colon, more than 100 µM. Further, the TGI in the assay with U251 CNS was more than 100 µM.
For the compound `CCOC(=O)CCC(NC(=O)OCc1ccccc1)C(=O)NC(CCC(=O)OCC)C(=O)OCC` (stereo not drawn) (Cbz-Glu(OEt)-Glu(OEt)-OEt; configuration not given here), the TGI with COLO 205 colon, in the assay on HCT-15 colon, with K-562 leukemia, in the assay on M14 melanoma, in the assay on MDA-MB-435 and with NCI-H23 lung was more than 100 µM throughout. In addition, the TGI in the assay with NCI-H460 lung, in the assay on NCI/ADR-RES ovarian, in the assay with OVCAR-4 ovarian, with OVCAR-8 ovarian, with SF-268 CNS and in the assay with SW-620 colon was more than 100 µM each time. This compound came in with a TGI in the assay on U251 CNS of more than 100 µM.
Regarding `NCCCN(CCCN)CCc1cn(C(=O)c2ccccc2)cn1`, the TGI was 9.58 µM with COLO 205 colon; 27.1 µM with HCT-15 colon; more than 37.4 µM in the assay on K-562 leukemia; 18.1 µM with M14 melanoma; 14.3 µM in the assay on MDA-MB-435; 36.7 µM in the assay with NCI-H23 lung. The TGI in the assay on NCI-H460 lung came out at 39 µM; with NCI/ADR-RES ovarian, 53.9 µM; with OVCAR-4 ovarian, 15.3 µM; in the assay on OVCAR-8 ovarian it was 56.3 µM; in the assay with SF-268 CNS it was 24.2 µM; in the assay with SW-620 colon it was 38.2 µM. In the assay with U251 CNS, this compound yielded a TGI of 30.1 µM.
Regarding `CC(NC(=O)Cc1ccccc1)NC(=O)C(C)C(=O)NCc1ccccc1` (stereo not drawn), the TGI in the assay with COLO 205 colon, with HCT-15 colon, in the assay with K-562 leukemia, with M14 melanoma, in the assay with MDA-MB-435 and in the assay with NCI-H23 lung was more than 100 µM each time. Moreover, the TGI in the assay with NCI-H460 lung, in the assay on NCI/ADR-RES ovarian, in the assay with OVCAR-4 ovarian, with OVCAR-8 ovarian, in the assay on SF-268 CNS and with SW-620 colon was more than 100 µM in each case. Also, the TGI in the assay with U251 CNS is more than 100 µM.
